Assays:
[1] = test system: liver cancer cell line HepG2; test: Various human cancer cell growth inhibition test: HepG2; type: cell-based; settings: CellTiter-Glo, read-out: GI50 value (concentration necessary for inhibiting 50% of cell growth)
Description: (§1) A breast cancer cell line BT-549 (obtained from American Type Culture Collection (ATCC)), a uterus cancer cell line C-33A (obtained from ATCC), an ovary cancer cell line PA-1 (obtained from ATCC), a large-cell lung cancer cell line NCI-H460 (obtained from ATCC), a small-cell lung cancer cell line NCI-H82 (obtained from ATCC), a kidney cancer cell line ACHN (obtained from ATCC), a pancreatic cancer cell line BxPC-3 (obtained from ATCC), a malignant melanoma cell line A375 (obtained from ATCC), a throat cancer cell line FaDu (obtained from ATCC), a medulloblastoma cell line Daoy (obtained from ATCC), a cutaneous epithelioid sarcoma cell line VA-ES-BJ (obtained from ATCC), a rhabdomyosarcoma cell line A-204 (obtained from ATCC), a prostate cancer cell line DU145 (obtained from ATCC), a bladder cancer cell line T24 (obtained from ATCC), a lymphoma cell line SR (obtained from ATCC), a neuroblastoma cell line SH-SY5Y (obtained from DS Pharma Biomedical Co., Ltd.), a liver cancer cell line HepG2 (obtained from DS Pharma Biomedical Co., Ltd.), a stomach cancer cell line HGC-27 (obtained from DS Pharma Biomedical Co., Ltd.), and a multiple myeloma cell line NCI-H929 (obtained from DS Pharma Biomedical Co., Ltd.) were used as human cancer cell lines.
(§2) Each cell line was cultured in a cell culture medium recommended by ATCC or DS Pharma Biomedical Co., Ltd. and inoculated at 0.3 to 5.0×10^3 cells/well to a 96-well plate. The cells were cultured overnight in a carbon dioxide incubator of 37° C. containing 5% carbon dioxide. The medium was replaced with a fresh medium on the next day, then replaced with a mixed solution of a DMSO solution of a test compound with varying concentrations and a culture medium (final DMSO concentration: 0.1%), and left standing in a carbon dioxide incubator (day 0). IV-361, IV-379, IV-3, IV-215, IV-299, IV-669, IV-1049, and palbociclib (for comparison) were used as test compounds. For a control group, DMSO was added instead of the DMSO solution of the test compound to a cell culture medium (final DMSO concentration: 0.1%).
(§3) After culture for a predetermined period, the ATP activity of BT-549, C-33A, PA-1, NCI-H460, NCI-H82, ACHN, BxPC-3, A375, FaDu, Daoy, VA-ES-BJ, A-204, DU145, T24, and SR was measured by using ATPlite (manufactured by PerkinElmer, Inc.). The ATP activity of SH-SY5Y, HepG2, HGC-27, and NCI-H929 was measured by using CellTiter-Glo (manufactured by Promega Corp.).
(§4) The rate of inhibition of cell growth (%) was calculated according to the expression given below. Specifically, in the case where the difference between the ATP activity before culture (day 0) and the ATP activity after culture in the test compound-administered group is the same as the difference between the ATP activity before culture (day 0) and the ATP activity after culture in the control group, the rate of inhibition of cell growth is 0%. Rate of inhibition of cell growth=(1−((ATP activity of the test compound-administered group after culture)−(ATP activity of the test compound-administered group on day 0))/((ATP activity of the control group after culture)−(ATP activity of the control group on day 0)))×100
(§5) The concentration of the test compound necessary for inhibiting 50% of cell growth (GI50 value) was calculated by using EXSUS (version 8.1.0, manufactured by CAC Exicare Corp.).

[2] = test system: medulloblastoma cell line Daoy; test: Various human cancer cell growth inhibition test: Daoy; type: cell-based; settings: ATPlite, read-out: GI50 value (concentration necessary for inhibiting 50% of cell growth)
Description: as §1, §2, §3, §4, §5

[3] = test system: pancreatic cancer cell line BxPC-3; test: Various human cancer cell growth inhibition test: BxPC-3; type: cell-based; settings: ATPlite, read-out: GI50 value (concentration necessary for inhibiting 50% of cell growth)
Description: as §1, §2, §3, §4, §5

IL-2 production = test: Human PBMC CD3/CD28-induced IL-2 production inhibition test; type: cell-based; settings: 48 h; human PBMC, CD3/CD28 stimulation, culture for 2 days, ELISA; read-out: IC50 value, IL-2 production inhibition
Protocol: PBMC (peripheral blood mononuclear cell) was separated and collected by using Ficoll-Paque (manufactured by GE Healthcare Japan Corp.) from blood collected from a healthy human adult in the presence of heparin. A RPMI1640 medium containing 10% FBS, 1% penicillin/streptomycin/amphotericin B, essential amino acids, and pyruvic acid and containing a test compound dissolved in DMSO and 2 μg/mL CD28 was added at 100 μL/well to T cell Activation Plate Anti-Human CD3 96-well plate (manufactured by Becton, Dickinson and Company), and subsequently, a PBMC suspension prepared such that the number of cells was 2×10^6 cells/mL was added thereto at 100 μL/well (final DMSO concentration: 0.1%). A RPMI1640 medium containing 10% FBS and containing 0.1% DMSO and 2 μg/mL CD28 was similarly added to wells not supplemented with the test compound. After culture for 2 days in a carbon dioxide incubator, the culture supernatant was collected. The collected culture supernatant was stored at −20° C. until IL-2 content measurement.
In the measurement of an L-2 content in the culture supernatant, a sandwich ELISA kit (Quantikine Human IL-2, manufactured by R&D Systems, Inc.) was used. The L-2 content of each sample was calculated from the calibration curve of Standard IL-2 included in the kit. […] A test compound concentration necessary for inhibiting 50% of L-2 production (IC50 value) was calculated from the concentration of the added test compound and the rate of inhibition of IL-2 production by the test compound by using EXSUS (version 8.1.0, manufactured by CAC Exicare Corp.).

[4] = test system: mouse imiquimod-induced psoriasis model; test: Ear thickening suppression test using mouse imiquimod-induced psoriasis model; type: in vivo; settings: topical, application of a 0.01% solution in methanol, female BALB/c mice, read-out: rate of inhibition of increase in ear thickness
Protocol: An imiquimod-induced psoriasis model test was carried out by modifying the method of Leslie van der Fits et al. (J. Immunol. 182, 5836 (2009)).
Female BALB/c mice (supplied by Charles River Laboratories Japan, Inc.) were used as laboratory animals. On the start day of the test, the thicknesses of the right auricles of the mice were measured with a thickness gauge (manufactured by TECLOCK Corp.). A test compound or a solvent was applied or orally administered thereto, and after a certain time, a certain amount of Beselna Cream 5% (containing 5% imiquimod, manufactured by Mochida Pharmaceutical Co., Ltd.) was applied to the insides of the right auricles. The test compound or solvent application or oral administration and the imiquimod application were carried out for a certain period, and the thicknesses of the right auricles were measured again on the final day. The thicknesses of the right auricles were compared between the solvent-administered group and the test compound group, and the rate of inhibition was calculated.

[5] = test system: prostate cancer cell line DU145; test: Various human cancer cell growth inhibition test: DU145; type: cell-based; settings: DU 145, ATPlite, read-out: GI50 value (concentration necessary for inhibiting 50% of cell growth)
Description: as §1, §2, §3, §4, §5

[6] = test system: multiple myeloma cell line NCI-H929; test: Various human cancer cell growth inhibition test: NCI-H929; type: cell-based; settings: CellTiter-Glo, read-out: GI50 value (concentration necessary for inhibiting 50% of cell growth)
Description: as §1, §2, §3, §4, §5

Row | Structure (SMILES) | GI50 [1] [µM] | GI50 [2] [µM] | GI50 [3] [µM] | IC50 (IL-2 production) [µM] | inhibition in vivo at 0.01 % [4] [%] | GI50 [5] [µM] | GI50 [6] [µM]
1 | Cc1cccc(Cl)c1NC(=O)N1Cc2c(NC(=O)C3([Si](C)(C)C)CCC3)n[nH]c2C1(C)C [IV-215, N-(2-Chloro-6-methylphenyl)-6,6-dimethyl-3-[1-(trimethylsilyl)cyclobutanecarboxamido]-4,6-dihydropyrrolo[3,4-c]pyrazole-5 (1H)-carboxamide] | < 0.3 | < 0.3 | < 0.3 | ≤ 0.1 | ≥ 50 | < 0.3 | < 0.3
2 | Cc1cccc(Br)c1NC(=O)N1Cc2c(NC(=O)C3([Si](C)(C)C)CCC3)n[nH]c2C1(C)C [IV-299, N-(2-Bromo-6-methylphenyl)-6,6-dimethyl-3-[1-(trimethylsilyl)cyclobutanecarboxamido]-4,6-dihydropyrrolo[3,4-c]pyrazole-5 (1H)-carboxamide] | 0.3 to 1 | < 0.3 | < 0.3 | ≤ 0.1 | ≥ 50 | < 0.3 | < 0.3
3 | CC1(C)c2[nH]nc(NC(=O)C3([Si](C)(C)C)CCC3)c2CN1C(=O)Nc1c(F)ccc2ccoc12 [IV-1049, N-(6-Fluorobenzofuran-7-yl)-6,6-dimethyl-3-[1-(trimethylsilyl)cyclobutanecarboxamido]-4,6-dihydropyrrolo[3,4-c]pyrazole-5 (1H)-carboxamide] | < 0.3 | < 0.3 | < 0.3 | ≤ 0.1 |  | < 0.3 | < 0.3

From patent US10894798B2, “Substituted dihydropyrrolopyrazole derivative” (UBE INDUSTRIES, LTD., priority 2015, dated 2021)
